According to paper PMC4350332 (Oncotarget, 2014):

Tests used:
PDK-1 = PDK-1 (Homo sapiens, UniProt Q15118); experiment: Isothermal calorimetry (ITC) binding affinity; set-up: PDK-1: residues 30-436; made in house; host or cells: E. coli BL21
ES-2 cells = experiment: Potentiation assay with doxorubicin, ES-2; assay type: cell-based
Procedure: The cells were then incubated for 120 h followed by cell mass determination using the Sulforhodamine B assay. […] Drug interactions were analyzed by the combination index (CI) method based on the method described by Chou. CI values <0.9 indicates synergism, 0.9 to 1.1 additivity, and >1.1 antagonism. The data was expressed in the form of Fa-CI simulation plot generated using calcusyn software (Biosoft). Potentiation assays were carried out as described previously.

PC-3 spheroids = experiment: Spheroid growth assay (3D culture); assay type: cell-based; settings: concentrations of 10 μM and above
Procedure: (§1) Compound cytotoxicity was determined using the Sulforhodamine B assay for cells cultured as a monolayer as described previously (45). For spheroid growth experiments, PC-3 cells were seeded (500 cells/well) into 96 well round bottom plates (Corning Costar 7007) in RPMI-1640 media containing 2.5% (w/v) Matrigel (BD Biosciences). […] Spheroid volumes were determined by obtaining diameter measurements from images taken on a Zeiss Axiovert 200M inverted microscope using the axiovision software.

HFF cells = experiment: Sulforhodamine B cytotoxicity, HFF cells; assay type: cell-based, human; settings: all of the conditions tested, 120 h
Procedure: as §1, with “software. […]” for “software.”
oncogenic KRAS(G13D) and BRAF(V600E) mutations. A and B, Cell lines harboring a KRAS(G13D) mutation (HCT-116, DLD-1 and MDA-MB-231), wild-type KRAS (MDA-MB-453) or a BRAF(V600E) mutation (A2058 and A375) were seeded into 96 well plates. The […]
DMSO in different culture conditions for 120 h. Cell mass was determined using the suforhodamine B assay. Norm = glucose-free media supplemented with 10% FCS and 2 g/L D-glucose; VLG (very low glucose) = 0.1 g/L D-glucose; LS (low serum) = 0.5% FCS.
Experiments were performed in triplicate. Error bars represent standard deviation of the […]
(1 picture or pasted object on this page, not shown here)

Sequence of PDK-1 (Q15118 30-436): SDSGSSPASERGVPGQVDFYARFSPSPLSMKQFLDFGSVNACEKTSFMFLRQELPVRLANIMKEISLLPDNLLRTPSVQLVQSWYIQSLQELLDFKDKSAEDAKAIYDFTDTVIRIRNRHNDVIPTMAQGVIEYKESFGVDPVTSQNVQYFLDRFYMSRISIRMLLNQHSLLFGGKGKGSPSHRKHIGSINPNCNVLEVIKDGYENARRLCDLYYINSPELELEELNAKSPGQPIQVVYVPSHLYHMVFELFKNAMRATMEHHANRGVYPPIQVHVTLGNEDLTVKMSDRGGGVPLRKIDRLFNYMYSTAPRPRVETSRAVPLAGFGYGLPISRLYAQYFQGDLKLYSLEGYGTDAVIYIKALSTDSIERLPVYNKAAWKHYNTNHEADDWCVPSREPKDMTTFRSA

C[C@@H]1CN(C(=O)[C@](C)(O)C(F)(F)F)[C@@H](C)CN1C(=O)c1ccc(C#N)cc1 [Nov3r, reference compound]
Kd (PDK-1): 8 nM

Cc1cnc(Cl)nc1-c1ccc(N(Cc2ccc(CNC(=O)C(F)F)cc2)C(=O)c2ccc(O)cc2O)cc1 [VER-246608]
Potentiation of doxorubicin (ES-2 cells): 3 fold
Reduction in spheroid volume (PC-3 spheroids): approximately 50%
Activity against HFF cells (HFF cells): largely inactive
